Measurements taken from patent US11945822B2, “Pyrazolo-triazine and/or pyrazolo-pxrimidine derivatives as selective inhibitor of cyclin dependent kinase” (QURIENT CO., LTD., priority 2018, dated 2024).
Read-outs that look alike come from different tables or passages of the source.

What was measured:
MV4-11 = assay: Cellular MV4-11 viability assay (CellTiter-Glo, 72 hours); format: cell-based; settings: Homo sapiens
Method in brief: (§1)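 Mycoplasma-tested cells, seeded at densities chosen for each line, received compound or DMSO vehicle (under 0.1% final) for 72 hours. Duplicate cultures were then read for viability by CellTiter-Glo luminescence.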

CDK2/Cyclin A = target: T1, CDK2/Cyclin A (Homo sapiens, UniProt P24941); assay: Enzymatic assay for CDK2 (FRET based LANCE Ultra kinase assay); format: biochemical
T1 construct: purchased Invitrogen PV6290
Method in brief: (§2)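 LANCE Ultra TR-FRET: ULight-MBP peptide (68 nM) with ATP at Km, […], 60 min at 23° C. EDTA plus Eu-anti-phospho-MBP added, another 60 min, then 665/615 nm emission read. Compounds tested as 8-dose 4-fold DMSO dilutions.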

CDK7/Cyclin H/MNAT1 = target: T2, CDK7/Cyclin H/MNAT1 (Homo sapiens, UniProt P50613); assay: Enzymatic assay for CDK7 (FRET based LANCE Ultra kinase assay); format: biochemical
T2 construct: purchased Invitrogen PR6749B
Method in brief: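 Inhibition was measured at Km ATP by time-resolved FRET between a Eu anti-phospho antibody and a phosphorylated ULight peptide. The enzyme was the purified CDK7/cyclin complex, and data were curve-fitted.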

CDK1/Cyclin B = target: T3, CDK1/Cyclin B (Homo sapiens, UniProt P06493); assay: Enzymatic assay for CDK1 (FRET based LANCE Ultra kinase assay); format: biochemical
T3 construct: purchased Invitrogen PR4768C
Method in brief: as §2

HCT116 = assay: Cellular HCT116 viability assay (CellTiter-Glo, 72 hours); format: cell-based; settings: Homo sapiens, HCT-116
Method in brief: as §1

A2780 = assay: Cellular A2780 viability assay (CellTiter-Glo, 72 hours); format: cell-based; settings: Homo sapiens
Description: Human T-cell acute lymphoblastic leukemia cell line, MOLT-4 (ATCC, Cat #CRL-1582), Human multiple myeloma cell line, RPMI-8226 (Invitrogen, Cat #22400-089) and MM.1S (ATCC, Cat #CRL-2974), NSCLC (Non-small cell lung cancer) cell line H460 (ATCC, Cat #HTB-177), Human colon colorectal carcinoma cell line HCT116 (ATCC, Cat #CCL-247), Human acute monocytic leukemia cell line MV4-11 (ATCC, Cat #CRL-9591), OVCAR-3 (ATCC, Cat #HTB-161) and A2780 (ECACC, Cat #93112519) were obtained from ATCC. Cells were grown in RPMI-1640 media (Invitrogen, Cat #22400-089) supplemented with 10% FBS (Invitrogen, Cat #10099141) and 1% penicillin/streptomycin (Invitrogen, Cat #15070063) and cultured at 37° C., 5% CO2 in a humidified chamber. All cell lines were routinely tested for mycoplasma.
The effect of the CDK7 inhibitor to inhibit the growth of target cancer cells was evaluated through the 72 hours time period of viability assay. Briefly, the candidate cell line ware plated in 96 well plate at the following density of cells respectively. 1×10^4 cells/well for MOLT-4, RPMI-8226, MV4-11 and MM.1S, 5×10^3 for H460, HCT116 and OVCAR-3 and IX 10^3 for A2780. After 24 hours, the cells were treated with various concentrations of the compound (ranging from 0.0015 uM to 10 uM). DMSO solvent without compound served as a control and final DMSO concentration less than 0.1%. After 72 hours of incubation at 37° C., 5% CO2 incubator, cells were analyzed for the viability using the CellTiter-Glo Luminescent Cell Viability Assay (Promega, Cat #G7570). All viability assays were performed in duplicate and Luminescence was read using an Envision (Perkin Elmer, USA). Data was analyzed using XLfit software.

CDK5/p25 = target: T4, CDK5/p25 (Homo sapiens, UniProt Q00535); assay: Enzymatic assay for CDK5 (FRET based LANCE Ultra kinase assay); format: biochemical
T4 construct: purchased Invitrogen PR8543B
Method in brief: as §2

H460 = assay: Cellular H460 viability assay (CellTiter-Glo, 72 hours); format: cell-based; settings: Homo sapiens, NCI-H460
Method in brief: as §1

[1] = read-out: CDK2 enzymatic activity (IC50 range)
[2] = read-out: CDK7 enzymatic activity (IC50 range)
[3] = read-out: CDK1 enzymatic activity (IC50 range)
[4] = read-out: CDK5 enzymatic activity (IC50 range)
[5] = read-out: CDK2 enzymatic activity (IC50 activity range)
[6] = read-out: CDK7 enzymatic activity (IC50 activity range)
[7] = read-out: CDK1 enzymatic activity (IC50 activity range)
[8] = read-out: CDK5 enzymatic activity (IC50 activity range)

T3 sequence (P06493 whole entry): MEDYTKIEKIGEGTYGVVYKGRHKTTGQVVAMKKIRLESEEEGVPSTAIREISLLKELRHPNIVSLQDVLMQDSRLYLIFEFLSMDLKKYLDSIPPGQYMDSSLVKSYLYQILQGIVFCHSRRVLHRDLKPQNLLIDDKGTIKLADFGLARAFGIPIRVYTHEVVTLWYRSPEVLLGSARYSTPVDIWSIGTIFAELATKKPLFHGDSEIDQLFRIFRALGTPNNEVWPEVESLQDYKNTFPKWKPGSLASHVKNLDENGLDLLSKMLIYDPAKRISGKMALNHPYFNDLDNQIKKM
T3 sequence (P14635 whole entry partner): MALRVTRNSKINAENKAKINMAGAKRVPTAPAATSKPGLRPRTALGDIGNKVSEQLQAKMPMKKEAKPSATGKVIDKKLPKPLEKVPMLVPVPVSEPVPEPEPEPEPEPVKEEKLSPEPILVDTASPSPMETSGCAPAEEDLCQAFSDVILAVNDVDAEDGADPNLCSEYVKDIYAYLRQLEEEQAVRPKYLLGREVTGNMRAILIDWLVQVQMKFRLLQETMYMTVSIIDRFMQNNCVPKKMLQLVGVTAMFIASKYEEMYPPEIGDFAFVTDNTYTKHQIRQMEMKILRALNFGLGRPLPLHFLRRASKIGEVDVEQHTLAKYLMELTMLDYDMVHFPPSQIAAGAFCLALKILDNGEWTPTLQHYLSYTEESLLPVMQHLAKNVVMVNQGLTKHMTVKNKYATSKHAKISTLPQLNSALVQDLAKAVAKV
T2 sequence (P50613 whole entry): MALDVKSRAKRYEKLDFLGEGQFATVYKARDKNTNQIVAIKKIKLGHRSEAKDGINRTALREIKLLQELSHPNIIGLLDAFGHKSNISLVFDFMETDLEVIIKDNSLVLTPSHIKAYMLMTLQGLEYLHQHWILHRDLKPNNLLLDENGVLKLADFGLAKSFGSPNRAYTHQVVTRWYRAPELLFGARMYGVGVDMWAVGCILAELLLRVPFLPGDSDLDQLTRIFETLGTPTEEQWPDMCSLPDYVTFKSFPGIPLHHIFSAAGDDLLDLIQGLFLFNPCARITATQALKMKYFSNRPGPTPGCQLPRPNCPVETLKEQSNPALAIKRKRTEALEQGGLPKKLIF
T2 sequence (P51946 whole entry partner): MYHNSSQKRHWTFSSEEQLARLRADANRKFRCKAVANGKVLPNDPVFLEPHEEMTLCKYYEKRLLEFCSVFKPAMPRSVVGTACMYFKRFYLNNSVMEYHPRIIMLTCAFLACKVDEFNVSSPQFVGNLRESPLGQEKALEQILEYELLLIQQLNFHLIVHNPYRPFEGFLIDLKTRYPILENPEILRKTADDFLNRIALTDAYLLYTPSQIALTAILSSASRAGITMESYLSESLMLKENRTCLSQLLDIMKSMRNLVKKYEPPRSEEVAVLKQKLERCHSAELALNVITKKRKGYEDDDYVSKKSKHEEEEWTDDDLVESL
T2 sequence (P51948 whole entry partner): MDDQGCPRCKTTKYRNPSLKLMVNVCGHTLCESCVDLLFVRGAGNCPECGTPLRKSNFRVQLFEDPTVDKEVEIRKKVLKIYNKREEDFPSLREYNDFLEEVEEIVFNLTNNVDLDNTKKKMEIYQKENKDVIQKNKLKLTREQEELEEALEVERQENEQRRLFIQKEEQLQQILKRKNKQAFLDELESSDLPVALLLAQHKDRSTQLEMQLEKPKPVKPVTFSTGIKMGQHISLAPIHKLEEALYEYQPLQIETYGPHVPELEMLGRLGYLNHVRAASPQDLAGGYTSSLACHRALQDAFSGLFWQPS
T4 sequence (Q00535 whole entry): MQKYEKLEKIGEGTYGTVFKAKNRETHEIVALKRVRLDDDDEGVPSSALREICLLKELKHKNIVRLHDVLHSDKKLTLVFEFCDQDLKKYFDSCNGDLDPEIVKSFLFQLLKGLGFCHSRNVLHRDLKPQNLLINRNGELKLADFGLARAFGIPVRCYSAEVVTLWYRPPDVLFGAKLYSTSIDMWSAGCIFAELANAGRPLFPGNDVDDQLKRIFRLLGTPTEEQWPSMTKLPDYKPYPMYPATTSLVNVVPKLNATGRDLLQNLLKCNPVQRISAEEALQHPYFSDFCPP
T4 sequence (Q15078 99-307 partner limits assumed): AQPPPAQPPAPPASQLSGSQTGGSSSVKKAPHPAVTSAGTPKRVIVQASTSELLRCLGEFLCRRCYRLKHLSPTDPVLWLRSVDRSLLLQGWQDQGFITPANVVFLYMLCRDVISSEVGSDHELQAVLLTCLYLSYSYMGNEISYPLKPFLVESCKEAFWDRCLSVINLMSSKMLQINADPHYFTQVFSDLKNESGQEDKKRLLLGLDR

Row | Compound | IC50 (MV4-11) | IC50 (CDK2/Cyclin A; [1]) | CDK1/CDK7: Selectivity of CDK7 inhibition over CDK1 inhibition (CDK7/Cyclin H/MNAT1; CDK7 over CDK1) | CDK2/CDK7: Selectivity of CDK7 inhibition over CDK2 inhibition (CDK7/Cyclin H/MNAT1; CDK7 over CDK2) | CDK5/CDK7: Selectivity of CDK7 inhibition over CDK5 inhibition (CDK7/Cyclin H/MNAT1; CDK7 over CDK5) | IC50 (CDK7/Cyclin H/MNAT1; [2]) | IC50 (CDK1/Cyclin B; [3]) | IC50 (HCT116) | IC50 (A2780) | IC50 (CDK5/p25; [4]) | IC50 (H460) | IC50 (CDK2/Cyclin A; [5]) | CDK1/CDK7: Selectivity of CDK7 inhibition over CDK1 inhibition (CDK7/Cyclin H/MNAT1; CDK1/CDK7) | CDK2/CDK7: Selectivity of CDK7 inhibition over CDK2 inhibition (CDK7/Cyclin H/MNAT1; CDK2/CDK7) | CDK5/CDK7: Selectivity of CDK7 inhibition over CDK5 inhibition (CDK7/Cyclin H/MNAT1; CDK5/CDK7) | IC50 (CDK7/Cyclin H/MNAT1; [6]) | IC50 (CDK1/Cyclin B; [7]) | IC50 (CDK5/p25; [8])
1 | CC(C)c1cnn2c(NCc3ccccc3-n3ccc(C(C)(C)O)n3)nc(NC[C@H]3CCNC[C@@H]3O)nc12 [Compound 233] | < 1000 nM | 100 to 1000 nM | A (A=greater than 200 fold) | B (B=less than 200 fold, but greater than 20 fold) | A (A=greater than 200 fold) | < 100 nM | > 1000 nM | < 1000 nM | ≤ 1000 nM | > 1000 nM | < 1000 nM |  |  |  |  |  |  | 
2 | CC(C)c1cnn2c(NCc3ccccc3-c3ccc4ccccc4n3)nc(NCCC(O)CN)nc12 (racemic) [Compound 234] | < 1000 nM | > 1000 nM | A (A=greater than 200 fold) | A (A=greater than 200 fold) | A (A=greater than 200 fold) | < 100 nM | > 1000 nM | < 1000 nM | ≤ 1000 nM | > 1000 nM | < 1000 nM |  |  |  |  |  |  | 
3 | Cc1cccc(-c2cc(C(C)(C)O)nn2C)c1CNc1nc(N2CCC(N)CC2)nc2c(C(C)C)cnn12 [Compound 231] | < 1000 nM | > 1000 nM | A (A=greater than 200 fold) | A (A=greater than 200 fold) | A (A=greater than 200 fold) | < 100 nM | > 1000 nM | < 1000 nM | ≤ 1000 nM | > 1000 nM | < 1000 nM |  |  |  |  |  |  | 
4 | CC(C)c1cnn2c(NCc3c(Cl)cccc3-c3cccc(C(C)(C)O)n3)nc(N3CCC(N)CC3)nc12 [Compound 241] | < 1000 nM | > 1000 nM | A (A=greater than 200 fold) | A (A=greater than 200 fold) | B (B=less than 200 fold, but greater than 20 fold) | < 100 nM | > 1000 nM | < 1000 nM | ≤ 1000 nM | > 1000 nM | < 1000 nM |  |  |  |  |  |  | 
5 | CC(C)c1cnn2c(NCc3c(Cl)cccc3-n3ccc(C(C)(C)O)n3)nc(N3CCC(O)(CN)CC3)nc12 [Compound 238] | < 1000 nM | > 1000 nM | A (A=greater than 200 fold) | A (A=greater than 200 fold) | A (A=greater than 200 fold) | < 100 nM | > 1000 nM | < 1000 nM | ≤ 1000 nM | > 1000 nM | < 1000 nM |  |  |  |  |  |  | 
6 | CC(C)c1cnn2c(NCc3c(Cl)cccc3-n3ccc(C(C)(C)O)n3)nc(N3CCC(C)(N)CC3)nc12 [Compound 246] | < 1000 nM | > 1000 nM | A (A=greater than 200 fold) | A (A=greater than 200 fold) | A (A=greater than 200 fold) | < 100 nM | > 1000 nM |  | ≤ 1000 nM | > 1000 nM | < 1000 nM |  |  |  |  |  |  | 
7 | CC(C)c1cnn2c(NCc3ccccc3-c3ccc4ccccc4n3)nc(N3CCCC[C@H]3CO)nc12 [Compound 263] | > 10000 nM |  |  |  |  |  |  |  | > 10000 nM |  | > 10000 nM | > 1000 nM | B (B=less than 200 fold, but greater than 20 fold) | B (B=less than 200 fold, but greater than 20 fold) | B (B=less than 200 fold, but greater than 20 fold) | 100 to 1000 nM | > 1000 nM | > 1000 nM
8 | CC(C)c1cnn2c(NCc3c(Cl)cccc3N3CC[C@@H](C(C)(C)O)C3)nc(N3CCC(N)CC3)nc12 [Compound 254] | < 1000 nM |  |  |  |  |  |  |  | ≤ 1000 nM |  | < 1000 nM | > 1000 nM | A (A=greater than 200 fold) | B (B=less than 200 fold, but greater than 20 fold) | B (B=less than 200 fold, but greater than 20 fold) | < 100 nM | > 1000 nM | 100 to 1000 nM
9 | CC(C)c1cnn2c(NCc3ccccc3-c3ccc4cc(C(C)(C)O)ccc4n3)nc(N3CCC(O)(CN)CC3)nc12 [Compound 243] | < 1000 nM | > 1000 nM | A (A=greater than 200 fold) | A (A=greater than 200 fold) | A (A=greater than 200 fold) | < 100 nM | > 1000 nM |  | ≤ 1000 nM | > 1000 nM | < 1000 nM |  |  |  |  |  |  | 
10 | CC(C)c1cnn2c(NCc3ccccc3-c3ccc4ccccc4n3)nc(N3CCCC[C@H]3CCO)nc12 [Compound 260] | 1000 to 10000 nM |  |  |  |  |  |  |  | 1000 to 10000 nM |  | 1000 to 10000 nM | > 1000 nM | B (B=less than 200 fold, but greater than 20 fold) | B (B=less than 200 fold, but greater than 20 fold) | B (B=less than 200 fold, but greater than 20 fold) | 100 to 1000 nM | > 1000 nM | > 1000 nM
